According to article PMC4457528, “Identification of Novel Small Molecule Inhibitors of Oncogenic RET Kinase” (PLoS ONE, 2015):
Read-outs that look alike come from different tables or passages of the source.

How the values were obtained:
Assay in all cases: KinomeScan kinase panel, single concentration 10 µM
Assay type in all cases: binding
KinomeScan kinase panel [1] = target: T1, KinomeScan kinase panel (Homo sapiens, UniProt P07949); conditions: 10 µM, read-out: score (%)
T1 construct: purchased DiscoveRx (KinomeScan)

KinomeScan kinase panel [2] = target: T2, KinomeScan kinase panel (Homo sapiens, UniProt Q08345); conditions: DDR1, 10 µM; read-out: score (%)
T2 construct: purchased DiscoveRx (KinomeScan)

KinomeScan kinase panel [3] = target: T3, KinomeScan kinase panel (Homo sapiens, UniProt Q8WXR4); conditions: MYO3B, 10 µM; read-out: score (%)
T3 construct: purchased DiscoveRx (KinomeScan)
T3 sequence (Q8WXR4 1-1341): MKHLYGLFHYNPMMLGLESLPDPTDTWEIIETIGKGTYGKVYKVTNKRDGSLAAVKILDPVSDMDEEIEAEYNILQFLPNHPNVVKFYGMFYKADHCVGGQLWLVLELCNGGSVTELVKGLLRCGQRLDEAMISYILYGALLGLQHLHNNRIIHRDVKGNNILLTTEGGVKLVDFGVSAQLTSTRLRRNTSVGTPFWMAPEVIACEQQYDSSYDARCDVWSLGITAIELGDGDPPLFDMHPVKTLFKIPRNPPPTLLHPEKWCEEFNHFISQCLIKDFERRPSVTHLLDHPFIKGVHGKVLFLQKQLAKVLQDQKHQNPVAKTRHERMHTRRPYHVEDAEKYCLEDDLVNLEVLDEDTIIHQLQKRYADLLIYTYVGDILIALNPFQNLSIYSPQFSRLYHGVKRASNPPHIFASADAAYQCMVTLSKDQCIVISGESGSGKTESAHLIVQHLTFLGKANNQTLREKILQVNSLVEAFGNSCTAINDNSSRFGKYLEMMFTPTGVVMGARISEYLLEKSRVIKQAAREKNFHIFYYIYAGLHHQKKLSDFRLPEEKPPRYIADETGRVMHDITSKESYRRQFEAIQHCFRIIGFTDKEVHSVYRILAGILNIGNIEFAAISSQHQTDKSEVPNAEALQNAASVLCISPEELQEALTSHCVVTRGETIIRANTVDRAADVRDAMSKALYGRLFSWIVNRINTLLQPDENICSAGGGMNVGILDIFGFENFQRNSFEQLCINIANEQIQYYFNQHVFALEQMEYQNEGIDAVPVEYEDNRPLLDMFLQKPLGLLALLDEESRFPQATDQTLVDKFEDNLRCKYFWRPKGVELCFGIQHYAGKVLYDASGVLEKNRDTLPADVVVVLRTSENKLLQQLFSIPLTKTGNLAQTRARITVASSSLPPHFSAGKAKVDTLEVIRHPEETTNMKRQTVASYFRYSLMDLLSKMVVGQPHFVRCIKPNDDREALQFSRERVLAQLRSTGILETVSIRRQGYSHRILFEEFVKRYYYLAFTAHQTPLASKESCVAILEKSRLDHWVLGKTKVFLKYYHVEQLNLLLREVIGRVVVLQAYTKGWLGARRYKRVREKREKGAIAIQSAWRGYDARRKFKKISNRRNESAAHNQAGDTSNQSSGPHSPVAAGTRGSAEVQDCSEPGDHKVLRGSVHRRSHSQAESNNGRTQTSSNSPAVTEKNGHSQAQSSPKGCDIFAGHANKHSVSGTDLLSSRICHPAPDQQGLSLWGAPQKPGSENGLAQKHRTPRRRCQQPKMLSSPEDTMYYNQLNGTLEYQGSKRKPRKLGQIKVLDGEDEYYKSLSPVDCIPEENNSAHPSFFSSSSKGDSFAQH

KinomeScan kinase panel [4] = target: T4, KinomeScan kinase panel (Homo sapiens, UniProt Q9BUB5); conditions: MKNK1, 10 µM; read-out: score (%)
T4 construct: purchased DiscoveRx (KinomeScan)

KinomeScan kinase panel [5] = target: T5, KinomeScan kinase panel (Homo sapiens, UniProt Q9BXA7); conditions: read-out: score (%)
T5 construct: purchased DiscoveRx (KinomeScan)
T5 sequence (Q9BXA7 1-367): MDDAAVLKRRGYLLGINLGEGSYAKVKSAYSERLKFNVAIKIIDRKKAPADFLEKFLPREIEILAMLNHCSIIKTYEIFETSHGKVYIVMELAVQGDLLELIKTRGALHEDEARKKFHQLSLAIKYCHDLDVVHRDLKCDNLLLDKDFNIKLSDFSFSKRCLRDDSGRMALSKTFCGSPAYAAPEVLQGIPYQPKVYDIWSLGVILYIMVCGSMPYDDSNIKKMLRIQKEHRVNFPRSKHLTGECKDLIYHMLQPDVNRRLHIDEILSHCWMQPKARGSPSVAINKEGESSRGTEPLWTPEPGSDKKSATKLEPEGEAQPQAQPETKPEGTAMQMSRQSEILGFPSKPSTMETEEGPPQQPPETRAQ

KinomeScan kinase panel [6] = target: T6, KinomeScan kinase panel (Homo sapiens, UniProt Q9C098); conditions: DCAMKL3, 10 µM; read-out: score (%)
T6 construct: purchased DiscoveRx (KinomeScan)

KinomeScan kinase panel [7] = target: T7, KinomeScan kinase panel (Homo sapiens, UniProt Q9NYL2); conditions: kinase ZAK; 10 µM; read-out: score (%)
T7 construct: purchased DiscoveRx (KinomeScan)

KinomeScan kinase panel [8] = target: T8, KinomeScan kinase panel (Homo sapiens, UniProt Q9Y5S2); conditions: MRCKB, 10 µM; read-out: score (%)
T8 construct: purchased DiscoveRx (KinomeScan)

T7 sequence (Q9NYL2 whole entry): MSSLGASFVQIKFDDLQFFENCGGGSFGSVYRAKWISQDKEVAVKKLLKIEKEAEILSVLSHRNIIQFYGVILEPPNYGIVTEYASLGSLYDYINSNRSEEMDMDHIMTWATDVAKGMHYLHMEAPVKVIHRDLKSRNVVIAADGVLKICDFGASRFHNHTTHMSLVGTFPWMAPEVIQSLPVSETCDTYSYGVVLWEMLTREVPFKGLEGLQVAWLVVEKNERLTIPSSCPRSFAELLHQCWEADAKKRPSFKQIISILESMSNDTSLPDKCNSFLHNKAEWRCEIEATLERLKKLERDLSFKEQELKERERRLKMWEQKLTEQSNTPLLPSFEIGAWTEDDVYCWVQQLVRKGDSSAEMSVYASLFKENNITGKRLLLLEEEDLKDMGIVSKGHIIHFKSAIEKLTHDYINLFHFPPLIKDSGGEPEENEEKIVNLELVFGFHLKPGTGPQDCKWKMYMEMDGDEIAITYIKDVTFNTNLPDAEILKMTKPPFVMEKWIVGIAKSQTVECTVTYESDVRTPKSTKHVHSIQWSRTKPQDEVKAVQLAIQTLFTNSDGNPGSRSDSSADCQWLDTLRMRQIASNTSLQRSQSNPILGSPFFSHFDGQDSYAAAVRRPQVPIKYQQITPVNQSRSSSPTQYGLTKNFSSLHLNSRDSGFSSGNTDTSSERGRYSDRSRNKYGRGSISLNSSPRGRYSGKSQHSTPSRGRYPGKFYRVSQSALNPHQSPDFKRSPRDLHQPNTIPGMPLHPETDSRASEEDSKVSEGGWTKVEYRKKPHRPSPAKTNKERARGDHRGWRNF
T2 sequence (Q08345 19-913): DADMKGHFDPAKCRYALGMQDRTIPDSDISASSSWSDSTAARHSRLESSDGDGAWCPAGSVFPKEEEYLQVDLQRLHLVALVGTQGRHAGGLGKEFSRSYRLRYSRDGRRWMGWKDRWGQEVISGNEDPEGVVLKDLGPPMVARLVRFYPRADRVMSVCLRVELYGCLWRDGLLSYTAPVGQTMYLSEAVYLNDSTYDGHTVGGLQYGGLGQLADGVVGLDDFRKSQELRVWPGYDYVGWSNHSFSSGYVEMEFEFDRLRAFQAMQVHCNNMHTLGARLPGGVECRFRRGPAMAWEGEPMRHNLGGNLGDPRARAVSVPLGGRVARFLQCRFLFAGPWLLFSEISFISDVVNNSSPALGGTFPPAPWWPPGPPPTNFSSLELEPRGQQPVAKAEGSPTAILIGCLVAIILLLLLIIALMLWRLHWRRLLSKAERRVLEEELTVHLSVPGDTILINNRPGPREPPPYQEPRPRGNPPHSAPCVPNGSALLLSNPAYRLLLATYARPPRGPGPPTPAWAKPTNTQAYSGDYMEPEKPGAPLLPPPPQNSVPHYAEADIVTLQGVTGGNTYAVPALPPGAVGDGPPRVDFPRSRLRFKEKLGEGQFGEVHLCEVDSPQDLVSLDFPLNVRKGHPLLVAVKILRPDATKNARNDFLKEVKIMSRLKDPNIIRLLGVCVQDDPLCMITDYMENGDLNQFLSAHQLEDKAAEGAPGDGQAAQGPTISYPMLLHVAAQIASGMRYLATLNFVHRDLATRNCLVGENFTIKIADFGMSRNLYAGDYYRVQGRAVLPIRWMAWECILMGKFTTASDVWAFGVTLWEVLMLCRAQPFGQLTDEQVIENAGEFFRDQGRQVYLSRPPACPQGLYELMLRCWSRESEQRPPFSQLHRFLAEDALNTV
T4 sequence (Q9BUB5 whole entry): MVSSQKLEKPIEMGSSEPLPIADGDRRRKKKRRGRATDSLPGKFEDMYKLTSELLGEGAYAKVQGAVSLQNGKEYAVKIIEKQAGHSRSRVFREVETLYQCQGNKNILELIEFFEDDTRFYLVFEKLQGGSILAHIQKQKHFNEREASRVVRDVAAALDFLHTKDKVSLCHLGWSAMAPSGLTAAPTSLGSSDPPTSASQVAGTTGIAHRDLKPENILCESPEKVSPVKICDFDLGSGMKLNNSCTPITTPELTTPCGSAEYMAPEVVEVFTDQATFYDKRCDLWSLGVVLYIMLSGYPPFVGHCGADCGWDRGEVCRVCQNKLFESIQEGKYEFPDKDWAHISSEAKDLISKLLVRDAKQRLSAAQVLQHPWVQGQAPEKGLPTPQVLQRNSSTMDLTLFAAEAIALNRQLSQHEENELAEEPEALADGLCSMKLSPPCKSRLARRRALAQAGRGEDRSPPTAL
T6 sequence (Q9C098 whole entry): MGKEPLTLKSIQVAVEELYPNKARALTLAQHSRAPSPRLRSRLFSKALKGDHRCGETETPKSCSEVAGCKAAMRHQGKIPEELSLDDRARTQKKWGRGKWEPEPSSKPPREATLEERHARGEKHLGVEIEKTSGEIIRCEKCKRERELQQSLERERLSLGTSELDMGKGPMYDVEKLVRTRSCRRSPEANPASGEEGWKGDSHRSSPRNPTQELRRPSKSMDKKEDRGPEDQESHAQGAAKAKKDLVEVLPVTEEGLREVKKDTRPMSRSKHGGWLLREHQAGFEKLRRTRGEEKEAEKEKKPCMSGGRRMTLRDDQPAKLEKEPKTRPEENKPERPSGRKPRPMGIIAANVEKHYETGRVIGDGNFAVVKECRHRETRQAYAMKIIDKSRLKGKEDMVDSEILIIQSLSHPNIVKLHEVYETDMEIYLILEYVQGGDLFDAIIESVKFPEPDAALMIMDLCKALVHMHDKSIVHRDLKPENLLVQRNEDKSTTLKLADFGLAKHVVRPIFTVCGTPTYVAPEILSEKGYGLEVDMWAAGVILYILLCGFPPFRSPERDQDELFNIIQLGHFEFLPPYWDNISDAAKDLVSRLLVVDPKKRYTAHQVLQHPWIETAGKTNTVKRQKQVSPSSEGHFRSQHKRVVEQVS
T1 sequence (P07949 29-1114): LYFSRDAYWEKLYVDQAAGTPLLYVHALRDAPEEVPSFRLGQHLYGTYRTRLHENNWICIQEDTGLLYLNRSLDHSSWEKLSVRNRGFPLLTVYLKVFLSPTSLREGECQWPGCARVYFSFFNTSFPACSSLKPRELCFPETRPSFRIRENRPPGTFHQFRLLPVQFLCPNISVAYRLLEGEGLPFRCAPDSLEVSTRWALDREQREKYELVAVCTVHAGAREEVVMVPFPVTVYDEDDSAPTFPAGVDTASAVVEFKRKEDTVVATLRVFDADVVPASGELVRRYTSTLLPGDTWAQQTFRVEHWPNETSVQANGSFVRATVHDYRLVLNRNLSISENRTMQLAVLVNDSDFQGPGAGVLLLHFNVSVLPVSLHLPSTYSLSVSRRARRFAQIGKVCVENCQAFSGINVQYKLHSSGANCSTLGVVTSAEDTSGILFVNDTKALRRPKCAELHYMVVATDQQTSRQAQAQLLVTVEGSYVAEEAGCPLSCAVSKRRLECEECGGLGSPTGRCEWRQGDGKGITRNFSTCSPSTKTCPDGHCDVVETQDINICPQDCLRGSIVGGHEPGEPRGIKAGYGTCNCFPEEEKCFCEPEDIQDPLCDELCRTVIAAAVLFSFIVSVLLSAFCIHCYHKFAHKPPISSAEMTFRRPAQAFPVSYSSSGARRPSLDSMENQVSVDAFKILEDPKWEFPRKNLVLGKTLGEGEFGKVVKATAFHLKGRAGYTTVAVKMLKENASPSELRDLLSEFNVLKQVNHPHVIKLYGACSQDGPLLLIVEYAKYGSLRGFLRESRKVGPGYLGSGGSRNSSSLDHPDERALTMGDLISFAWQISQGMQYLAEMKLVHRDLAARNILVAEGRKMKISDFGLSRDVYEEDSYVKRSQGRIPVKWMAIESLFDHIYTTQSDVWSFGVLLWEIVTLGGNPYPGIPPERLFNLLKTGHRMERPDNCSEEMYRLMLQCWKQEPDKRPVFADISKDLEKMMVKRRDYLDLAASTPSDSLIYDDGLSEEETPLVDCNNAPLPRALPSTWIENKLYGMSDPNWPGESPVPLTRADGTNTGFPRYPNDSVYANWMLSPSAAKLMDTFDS

Row | remaining binding at 10 µM (KinomeScan kinase panel [5]; TSSK1, 10 µM) | Compound | remaining binding at 10 µM (KinomeScan kinase panel [1]; RET) | remaining binding at 10 µM (KinomeScan kinase panel [2]) | remaining binding at 10 µM (KinomeScan kinase panel [3]) | remaining binding at 10 µM (KinomeScan kinase panel [4]) | remaining binding at 10 µM (KinomeScan kinase panel [5]; kinase TSSK1B, 10 µM) | remaining binding at 10 µM (KinomeScan kinase panel [6]) | remaining binding at 10 µM (KinomeScan kinase panel [7]) | remaining binding at 10 µM (KinomeScan kinase panel [8]) | remaining binding at 10 µM (KinomeScan kinase panel [1]; kinase RET)
1 |  | CCN1CCN(Cc2ccc(NC(=O)c3ccc(C)c(NC(=O)c4cncc(-c5cccs5)c4)c3)cc2C(F)(F)F)CC1 [ALW-II-41-27] | 0.05% | 0.15% | > 30% | 14% | > 30% | > 30% | 3% | > 30% | 
2 | > 30% | CCN1CCN(Cc2ccc(NC(=O)c3ccc(C)c(/C=C/c4cnc5[nH]ccc5c4Cl)c3)cc2C(F)(F)F)CC1 [HG-6-63-01, (E)-3-(2-(4-chloro-1H-pyrrolo[2,3-b]pyridin-5-yl)vinyl)-N-(4-((4-ethylpiperazin-1-yl)methyl)-3-(trifluoromethyl)phenyl)-4-methylbenzamide] | 0% | 0.1% | 30% | > 30% |  | 2.5% | 0.35% | 30% | 
3 |  | CCN1CCN(Cc2ccc(NC(=O)c3ccc(C)c(C#Cc4cccnc4)c3)cc2C(F)(F)F)CC1 [XMD15-44] |  | 0.05% | 0% | 0.25% | 92% | > 30% | 0.4% | > 30% | 0%
